Our source for the IC50 and Kd values is patent US20240246954A1, “COMPOSITIONS AND METHODS FOR INHIBITING KRAS” (TheRas, Inc., priority 2021, published 2024).

A value given as a limit tells only on which side of the number the result lay.

The IC50 is the midpoint of a concentration-inhibition curve. A higher IC50 goes with weaker potency. For orientation: Kd means the concentration at which binding is half-saturated.

Assay [1] addresses T1, Avi-KRAS G12D/Q25A (1-169) GppNHp/3×FLAG-PI3KCA (157-299) (Homo sapiens, UniProt P01116, G12D/Q25A).
T1 construct: Avi-KRAS G12D/Q25A (1-169) GppNHp
The experiment in a line: HTRF PI3KCA-KRAS G12D/Q25A-GppNHp disruption assay. The format is biochemical. The settings on record: 1 h incubation. In outline:
(§1)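 Compounds titrated from 100 μM in a 10-point series, incubated with protein mix 1 h at room temperature, then HTRF reagents a further 1 h. Time-resolved fluorescence read (excitation 320 nm, emission 615 nm); activity expressed as percentage of DMSO control.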
(In TR-FRET formats the signal depends on donor and acceptor labels being close together.)

Assay [2] concerns pERK in GP2d cells (KRAS G12D). In words: Cell-based pERK HTRF assay. To be noted: GP2d, 1 h, 60 min incubation. The method, boiled down:
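GP2d cells (DMEM, 10% FBS) treated 60 min with compounds in a 9-point half-log series from 1 μM top concentration, 0.25% DMSO. Lysates read for pERK by HTRF (d2/Eu cryptate antibodies) after 4–24 h at room temperature; emission at 615 nm.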

Assay [3] deals with T2, Avi-KRAS G12D (1-169) GppNHp/RAF1 RBD-3×FLAG (52-151) (Homo sapiens, UniProt P01116, G12D).
T2 construct: Avi-KRAS G12D (1-169) GppNHp
T2 sequence (P01116 1-169 isoform P01116-2 G12D limits assumed): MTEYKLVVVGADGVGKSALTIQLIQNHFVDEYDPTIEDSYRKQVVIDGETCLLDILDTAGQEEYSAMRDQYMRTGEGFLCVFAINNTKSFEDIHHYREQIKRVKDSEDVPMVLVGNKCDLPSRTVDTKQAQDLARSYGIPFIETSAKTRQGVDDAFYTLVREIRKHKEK
In words: HTRF Raf1-KRAS G12D-GppNHp disruption assay. The format is biochemical. The settings on record: 1 h incubation. In outline: as §1

Assay [4] addresses GppNHp KRAS G12D (Homo sapiens, UniProt P01116, G12D). In words: SPR binding affinity, GppNHp KRAS G12D. To be noted: GppNHp-bound KRAS G12D. A general note: SPR reads the build-up and loss of mass on a sensor chip optically.
The target of assay [5] is GDP KRAS G12D (Homo sapiens, UniProt P01116, G12D). The experiment in a line: SPR binding affinity, GDP KRAS G12D. The settings on record: GDP-bound KRAS G12D.
Chain of GDP KRAS G12D (P01116 1-188 isoform P01116-2 G12D): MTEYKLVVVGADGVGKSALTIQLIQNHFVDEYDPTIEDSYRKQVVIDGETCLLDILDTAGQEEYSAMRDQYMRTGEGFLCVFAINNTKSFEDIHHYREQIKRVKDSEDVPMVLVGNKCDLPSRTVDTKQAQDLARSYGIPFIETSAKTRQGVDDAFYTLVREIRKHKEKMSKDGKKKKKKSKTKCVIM

T1 sequence (P01116 1-169 isoform P01116-2 G12D/Q25A limits assumed): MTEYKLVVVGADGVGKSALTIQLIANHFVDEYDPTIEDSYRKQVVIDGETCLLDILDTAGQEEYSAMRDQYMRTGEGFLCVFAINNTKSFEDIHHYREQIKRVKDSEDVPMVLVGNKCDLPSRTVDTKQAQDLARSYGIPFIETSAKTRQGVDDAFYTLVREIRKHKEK
Chain of GppNHp KRAS G12D (P01116 1-188 isoform P01116-2 G12D): as the sequence (P01116 1-188 isoform P01116-2 G12D) above

For `N#Cc1c(N)sc2c(F)ccc(-c3c(Cl)cc4c(N5C[C@H]6CC[C@@H](C5)N6)nc(OC[C@@]56CCCN5C[C@H](F)C6)nc4c3F)c12` [Compound 260, 4-(4-((1R,5S)-3,8-diazabicyclo[3.2.1]octan-3-yl)-6-chloro-8-fluoro-2-(((2R,7aS)-2-fluorotetrahydro-1H-pyrrolizin-7a(5H)-yl)methoxy)quinazolin-7-yl)-2-amino-7-fluorobenzo[b]thiophene-3-carbonitrile], the IC50 was 100 to 1000 nM in assay [1], no more than 100 nM in assay [2] and no more than 100 nM in assay [3]. Besides, the Kd in assay [4] and in assay [5] was no more than 100 nM throughout.

`CN(c1nc(OC[C@@]23CCCN2C[C@H](F)C3)nc2c(F)c(-c3ccc(F)c4sc(N)nc34)c(C(F)(F)F)cc12)[C@H]1CNC[C@H]1F` [Compound 290]: the half-inhibitory concentration (IC50) in assay [1] is 100 to 1000 nM; in assay [2], no more than 100 nM; in assay [3], 100 to 1000 nM. The results for the Kd in assay [4] and in assay [5] were 100 to 1000 nM and no more than 100 nM, respectively.

Turning to `N#Cc1c(N)sc2c(F)ccc(-c3c(C(F)F)cc4c(N5C[C@H]6CC[C@@H](C5)N6)nc(OC[C@@]56CCCN5C[C@H](F)C6)nc4c3F)c12` [Compound 301, 4-(4-((1R,5S)-3,8-diazabicyclo[3.2.1]octan-3-yl)-6-(difluoromethyl)-8-fluoro-2-(((2R,7aS)-2-fluorotetrahydro-1H-pyrrolizin-7a(5H)-yl)methoxy)quinazolin-7-yl)-2-amino-7-fluorobenzo[b]thiophene-3-carbonitrile], the IC50 in assay [1] is 100 to 1000 nM; in assay [2], no more than 100 nM; in assay [3], 100 to 1000 nM. The Kd in assay [4] and in assay [5] was no more than 100 nM in each case.
